Paper PMC7854383, “Cellular Uptake of Psychostimulants – Are High- and Low-Affinity Organic Cation Transporters Drug Traffickers?” (Frontiers in Pharmacology, 2021)
Changes are numbered by the printed parent chain. Where “and” joins values, the source holds several entries; their conditions need not be identical. Equal entries are not always repeated.

Assays:
[1] = target: NET (Homo sapiens, UniProt P23975); test: Screening of cellular uptake at 1 µM, NET-overexpressing HEK293 cells over empty vector control cells; details: 2 min
Description: (§3) The HEK293 cells were cultered in DMEM medium supplemented with 10% (v/v) fetal bovine serum as well as penicillin (100 U/ml) and streptomycin (100 μg/ml) obtained from Thermo Fisher Scientific (Darmstadt, Germany). Cells were seeded on 12-well plates coated with poly-D-lysine (Sigma-Aldrich, Taufkirchen, Germany) 48 h before the transport experiments and incubated at 37°C, 95% relative humidity, and 5% CO2. […] All cell lines were washed with 37°C HBSS+ and subsequently incubated with the pre-warmed substrate in HBSS+ at 37°C. The time points for measuring substrate uptake were 1 min for MATE2-K and 2 min for the other SLCs. […] The reaction was stopped by adding ice-cold HBSS+, and the cells were washed twice with ice-cold HBSS+ before lysis with 80% acetonitrile (LGC Standards, Wesel, Germany) including an internal standard. Subsequently, the intracellular substrate accumulation was determined using LC-MS/MS.
(§4) Intracellular accumulation was measured by HPLC-MS/MS using a Shimadzu Nexera HPLC system with a LC-30AD pump, a SIL-30AC autosampler, a CTO-20AC column oven, and a CBM-20A controller (Shimadzu, Kyoto, Japan). […] Peak integration and quantification of the analytes was done using the Analyst software (Version 1.6.2, AB SCIEX, Darmstadt, Germany) and determined by simultaneous measurement of standard curves with known concentrations.

[2] = target: SERT (Homo sapiens, UniProt P31645); test: Screening of cellular uptake at 1 µM, SERT-overexpressing HEK293 cells over empty vector control cells; format: in vitro ADME; details: 2 min
[3] = target: T1, OCT1 (Homo sapiens, UniProt O15245); test: Screening of cellular uptake at 1 µM, OCT1-overexpressing HEK293 cells over empty vector control cells; details: 2 min
T1 sequence (O15245 1-554): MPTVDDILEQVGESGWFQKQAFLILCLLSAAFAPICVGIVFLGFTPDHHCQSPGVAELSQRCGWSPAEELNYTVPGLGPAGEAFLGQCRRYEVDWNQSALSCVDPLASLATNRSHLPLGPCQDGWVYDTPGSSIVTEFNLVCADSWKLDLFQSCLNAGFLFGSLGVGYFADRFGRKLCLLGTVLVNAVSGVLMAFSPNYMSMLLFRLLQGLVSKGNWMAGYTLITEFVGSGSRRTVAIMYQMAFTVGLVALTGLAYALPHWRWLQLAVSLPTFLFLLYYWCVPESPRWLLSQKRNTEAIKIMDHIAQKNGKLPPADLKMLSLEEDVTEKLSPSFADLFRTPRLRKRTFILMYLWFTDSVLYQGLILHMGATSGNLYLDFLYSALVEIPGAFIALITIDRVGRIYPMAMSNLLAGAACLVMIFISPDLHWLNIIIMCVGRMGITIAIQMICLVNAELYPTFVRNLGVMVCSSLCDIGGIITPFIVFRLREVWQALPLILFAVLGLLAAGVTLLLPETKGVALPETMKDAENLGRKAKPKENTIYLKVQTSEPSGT
Description: (§1) Koepsell and Gorbulev (University of Würzburg, Germany).
(§2) Eighteen psychostimulants and hallucinogens were initially screened for their potential to be substrates for different polyspecific OCTs and high-affinity monoamine neurotransmitter transporters (Figure 3), as well as for the efflux transporter MATE2-K (Supplementary Figure S1).

[4] = target: T2, OCT3 (Homo sapiens, UniProt O75751); test: Screening of cellular uptake at 1 µM, OCT3-overexpressing HEK293 cells over empty vector control cells; format: in vitro ADME; details: 2 min
T2 construct: Koepsell and Gorbulev (University of Würzburg); host or cells: HEK293
T2 sequence (O75751 1-556): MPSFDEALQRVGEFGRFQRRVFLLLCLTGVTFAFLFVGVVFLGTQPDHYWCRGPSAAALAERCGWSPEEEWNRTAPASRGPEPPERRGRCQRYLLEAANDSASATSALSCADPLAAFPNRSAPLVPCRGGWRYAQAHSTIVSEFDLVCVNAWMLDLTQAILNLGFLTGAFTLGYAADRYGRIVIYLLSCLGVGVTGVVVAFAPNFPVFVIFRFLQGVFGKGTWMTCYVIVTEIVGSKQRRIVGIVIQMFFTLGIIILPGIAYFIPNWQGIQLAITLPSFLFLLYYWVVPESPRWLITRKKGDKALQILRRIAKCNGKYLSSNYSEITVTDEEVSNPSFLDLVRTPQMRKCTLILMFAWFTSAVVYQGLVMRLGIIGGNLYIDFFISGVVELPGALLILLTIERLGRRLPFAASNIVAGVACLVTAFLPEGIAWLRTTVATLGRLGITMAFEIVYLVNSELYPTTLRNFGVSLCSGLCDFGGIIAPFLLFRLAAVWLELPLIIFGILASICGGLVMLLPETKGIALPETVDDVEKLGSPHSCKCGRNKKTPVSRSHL
Description: as §1, §2

[5] = target: T3, OCT1*6 (M420del, C88R) (Homo sapiens, UniProt O15245, C88R/DEL420-420)
T3 sequence (O15245 with tags, fused parts or gaps C88R/DEL420-420): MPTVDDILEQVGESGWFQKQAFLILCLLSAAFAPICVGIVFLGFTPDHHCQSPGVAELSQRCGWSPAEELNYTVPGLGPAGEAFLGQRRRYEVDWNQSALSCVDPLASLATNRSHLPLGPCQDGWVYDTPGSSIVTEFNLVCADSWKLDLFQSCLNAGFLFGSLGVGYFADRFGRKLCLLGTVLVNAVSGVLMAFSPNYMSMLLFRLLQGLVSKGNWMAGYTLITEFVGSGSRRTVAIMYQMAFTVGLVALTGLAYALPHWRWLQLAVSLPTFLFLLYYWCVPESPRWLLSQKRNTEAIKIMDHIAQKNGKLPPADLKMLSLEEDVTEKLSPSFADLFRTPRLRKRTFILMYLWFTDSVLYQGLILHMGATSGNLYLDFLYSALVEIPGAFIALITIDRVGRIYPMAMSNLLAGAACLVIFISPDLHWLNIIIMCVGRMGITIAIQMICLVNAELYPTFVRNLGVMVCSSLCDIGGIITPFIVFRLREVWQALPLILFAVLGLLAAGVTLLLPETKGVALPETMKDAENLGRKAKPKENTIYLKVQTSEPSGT
Description: (§5) The cells were kept in culture for no more than 30 passages.
The HEK293 cells were cultered in DMEM medium supplemented with 10% (v/v) fetal bovine serum as well as penicillin (100 U/ml) and streptomycin (100 μg/ml) obtained from Thermo Fisher Scientific (Darmstadt, Germany). Cells were seeded on 12-well plates coated with poly-D-lysine (Sigma-Aldrich, Taufkirchen, Germany) 48 h before the transport experiments and incubated at 37°C, 95% relative humidity, and 5% CO2. Cell lines overexpressing MATE2-K were incubated with 30 mM NH4Cl in HBSS+ (10 mM HEPES in HBSS, pH 7.4; Thermo Fisher Scientific, Darmstadt, Germany) for 30 min prior to the assay to invert the direction of transport. All cell lines were washed with 37°C HBSS+ and subsequently incubated with the pre-warmed substrate in HBSS+ at 37°C. The time points for measuring substrate uptake were 1 min for MATE2-K and 2 min for the other SLCs. […] It was assumed to be linear for the other transporters as well, based on previous experience with these expression systems. […] Subsequently, the intracellular substrate accumulation was determined using LC-MS/MS.
as §4
For the screenings, cellular uptake measured in cell lines overexpressing the respective transporter was divided by the uptake measured in an empty vector control cell line to calculate normalised ratios to enable comparisons between test compounds. For studying transport kinetics, the net transport mediated by the overexpressed transporters was calculated by subtracting the cellular uptake measured in an empty vector control cell line from the uptake in cell lines overexpressing the respective transporter. […]

[6] = target: T4, OCT1*1 (WT) (Homo sapiens, UniProt O15245); details: net transport, 2 min
T4 sequence (O15245 1-554): T1 sequence (O15245 1-554)
Description: as §5
(§6) The HEK293 cells were cultered in DMEM medium supplemented with 10% (v/v) fetal bovine serum as well as penicillin (100 U/ml) and streptomycin (100 μg/ml) obtained from Thermo Fisher Scientific (Darmstadt, Germany). Cells were seeded on 12-well plates coated with poly-D-lysine (Sigma-Aldrich, Taufkirchen, Germany) 48 h before the transport experiments and incubated at 37°C, 95% relative humidity, and 5% CO2. Cell lines overexpressing MATE2-K were incubated with 30 mM NH4Cl in HBSS+ (10 mM HEPES in HBSS, pH 7.4; Thermo Fisher Scientific, Darmstadt, Germany) for 30 min prior to the assay to invert the direction of transport. All cell lines were washed with 37°C HBSS+ and subsequently incubated with the pre-warmed substrate in HBSS+ at 37°C. […] Subsequently, the intracellular substrate accumulation was determined using LC-MS/MS.
(§7) Intracellular accumulation was measured by HPLC-MS/MS using a Shimadzu Nexera HPLC system with a LC-30AD pump, a SIL-30AC autosampler, a CTO-20AC column oven, and a CBM-20A controller (Shimadzu, Kyoto, Japan). […] Peak integration and quantification of the analytes was done using the Analyst software (Version 1.6.2, AB SCIEX, Darmstadt, Germany) and determined by simultaneous measurement of standard curves with known concentrations. […]

[7] = target: T5, OCT1*3 (R61C) (Homo sapiens, UniProt O15245, R61C)
T5 sequence (O15245 1-554 R61C): T1 sequence (O15245 1-554) with R61C
Description: as §5, §6, §7

[8] = target: T6, MATE2-K (Homo sapiens, UniProt Q86VL8); test: Screening of cellular uptake at 1 µM, MATE2-K-overexpressing HEK293 cells over empty vector control cells; format: in vitro ADME; details: 1 min
T6 construct: expressed in transfected cells
Description: as §1, §2

[9] = target: T7, DAT (Homo sapiens, UniProt Q01959); test: Screening of cellular uptake at 1 µM, DAT-overexpressing HEK293 cells over empty vector control cells; details: 2 min
Description: as §3, §4

[10] = target: T8, wild-type OCT2 (Homo sapiens, UniProt O15244); test: Concentration-dependent transport by wild-type OCT2 in HEK293 cells
T8 sequence (O15244 1-555 S270A): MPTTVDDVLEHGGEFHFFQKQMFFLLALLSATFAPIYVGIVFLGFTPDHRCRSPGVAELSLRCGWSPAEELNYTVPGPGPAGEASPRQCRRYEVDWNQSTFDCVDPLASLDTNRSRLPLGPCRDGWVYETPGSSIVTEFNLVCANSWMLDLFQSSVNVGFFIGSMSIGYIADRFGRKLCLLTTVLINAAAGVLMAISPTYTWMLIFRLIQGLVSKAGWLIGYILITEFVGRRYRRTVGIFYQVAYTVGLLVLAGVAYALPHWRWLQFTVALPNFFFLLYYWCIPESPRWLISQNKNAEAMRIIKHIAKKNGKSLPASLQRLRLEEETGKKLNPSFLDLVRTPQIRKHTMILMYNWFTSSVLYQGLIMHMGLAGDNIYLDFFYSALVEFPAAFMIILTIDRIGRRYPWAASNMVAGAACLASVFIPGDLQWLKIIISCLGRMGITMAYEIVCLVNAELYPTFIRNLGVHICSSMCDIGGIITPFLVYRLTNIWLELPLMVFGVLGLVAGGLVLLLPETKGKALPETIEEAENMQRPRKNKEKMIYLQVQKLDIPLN

[11] = four healthy volunteers; ref Toennes and Kauert, 2002; www.dosing.de and www.drugbank.ca; cited from earlier work
[12] = target: T9, OCT2 variant A270S (Homo sapiens, UniProt O15244); test: Concentration-dependent transport by OCT2 variant A270S in HEK293 cells
T9 sequence (O15244 1-555): T8 sequence (O15244 1-555 S270A) with A270S

[13] = target: T10, OCT2 (Homo sapiens, UniProt O15244); test: Screening of cellular uptake at 1 µM, OCT2-overexpressing HEK293 cells over empty vector control cells; details: 2 min
T10 sequence (O15244 1-555 S270A): T8 sequence (O15244 1-555 S270A)
Description: as §1, §2

[14] = target: T7, DAT; test: Concentration-dependent transport by DAT in HEK293 cells; details: DAT versus NET
[15] = target: T1, OCT1; test: Inhibition of mescaline uptake by OCT1; format: in vitro ADME; set-up: expressed in transfected cells; details: 1 mM MPP^+; compared with empty vector-transfected cells

T7 sequence (Q01959 whole entry): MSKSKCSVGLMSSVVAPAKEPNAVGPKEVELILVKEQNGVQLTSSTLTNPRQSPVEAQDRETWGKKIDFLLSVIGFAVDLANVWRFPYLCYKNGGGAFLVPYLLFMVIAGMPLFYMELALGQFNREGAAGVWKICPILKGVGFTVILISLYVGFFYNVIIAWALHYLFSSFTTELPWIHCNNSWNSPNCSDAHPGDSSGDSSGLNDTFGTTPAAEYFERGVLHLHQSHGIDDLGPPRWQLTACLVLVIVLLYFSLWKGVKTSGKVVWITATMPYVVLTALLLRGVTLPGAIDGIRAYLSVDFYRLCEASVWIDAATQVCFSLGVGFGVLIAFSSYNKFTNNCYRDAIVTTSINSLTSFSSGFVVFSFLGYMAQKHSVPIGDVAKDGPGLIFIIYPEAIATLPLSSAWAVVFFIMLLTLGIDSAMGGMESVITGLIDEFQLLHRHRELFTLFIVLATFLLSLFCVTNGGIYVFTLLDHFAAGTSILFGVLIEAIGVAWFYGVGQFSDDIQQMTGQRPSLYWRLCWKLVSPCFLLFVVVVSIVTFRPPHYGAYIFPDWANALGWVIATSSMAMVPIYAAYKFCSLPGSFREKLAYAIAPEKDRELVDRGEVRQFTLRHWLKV
NET, sequence (P23975 whole entry): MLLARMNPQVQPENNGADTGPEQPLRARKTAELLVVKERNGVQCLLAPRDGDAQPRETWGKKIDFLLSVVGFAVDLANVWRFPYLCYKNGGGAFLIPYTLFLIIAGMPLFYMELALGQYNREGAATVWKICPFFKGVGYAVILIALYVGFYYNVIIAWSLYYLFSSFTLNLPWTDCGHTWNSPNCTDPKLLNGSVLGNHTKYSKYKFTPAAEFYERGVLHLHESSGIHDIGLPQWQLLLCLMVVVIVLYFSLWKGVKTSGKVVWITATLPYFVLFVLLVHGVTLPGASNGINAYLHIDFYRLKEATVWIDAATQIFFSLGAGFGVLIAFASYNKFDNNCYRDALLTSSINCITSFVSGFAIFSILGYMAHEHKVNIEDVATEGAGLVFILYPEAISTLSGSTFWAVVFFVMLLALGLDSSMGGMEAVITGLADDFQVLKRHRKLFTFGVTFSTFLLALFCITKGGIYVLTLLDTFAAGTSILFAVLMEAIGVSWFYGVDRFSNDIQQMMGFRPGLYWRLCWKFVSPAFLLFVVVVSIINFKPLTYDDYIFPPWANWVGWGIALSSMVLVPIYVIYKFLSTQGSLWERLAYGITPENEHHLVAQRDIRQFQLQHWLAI
SERT, sequence (P31645 whole entry): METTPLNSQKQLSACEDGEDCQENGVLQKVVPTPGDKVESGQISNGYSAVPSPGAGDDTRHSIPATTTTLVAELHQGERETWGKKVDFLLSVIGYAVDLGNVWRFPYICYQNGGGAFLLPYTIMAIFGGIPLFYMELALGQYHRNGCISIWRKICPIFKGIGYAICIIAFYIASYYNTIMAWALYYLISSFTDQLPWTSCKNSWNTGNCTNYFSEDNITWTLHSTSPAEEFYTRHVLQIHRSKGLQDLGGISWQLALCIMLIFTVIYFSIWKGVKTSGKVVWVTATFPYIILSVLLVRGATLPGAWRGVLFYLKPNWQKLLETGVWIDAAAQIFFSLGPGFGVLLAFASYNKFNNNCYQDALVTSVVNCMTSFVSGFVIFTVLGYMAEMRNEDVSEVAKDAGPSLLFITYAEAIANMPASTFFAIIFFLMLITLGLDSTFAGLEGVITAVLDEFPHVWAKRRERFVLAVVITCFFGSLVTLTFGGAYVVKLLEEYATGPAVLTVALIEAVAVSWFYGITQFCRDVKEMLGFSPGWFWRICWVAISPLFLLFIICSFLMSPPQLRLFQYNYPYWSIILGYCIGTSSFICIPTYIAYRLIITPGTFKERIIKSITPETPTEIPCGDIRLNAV
T6 sequence (Q86VL8 1-566 isoform Q86VL8-3): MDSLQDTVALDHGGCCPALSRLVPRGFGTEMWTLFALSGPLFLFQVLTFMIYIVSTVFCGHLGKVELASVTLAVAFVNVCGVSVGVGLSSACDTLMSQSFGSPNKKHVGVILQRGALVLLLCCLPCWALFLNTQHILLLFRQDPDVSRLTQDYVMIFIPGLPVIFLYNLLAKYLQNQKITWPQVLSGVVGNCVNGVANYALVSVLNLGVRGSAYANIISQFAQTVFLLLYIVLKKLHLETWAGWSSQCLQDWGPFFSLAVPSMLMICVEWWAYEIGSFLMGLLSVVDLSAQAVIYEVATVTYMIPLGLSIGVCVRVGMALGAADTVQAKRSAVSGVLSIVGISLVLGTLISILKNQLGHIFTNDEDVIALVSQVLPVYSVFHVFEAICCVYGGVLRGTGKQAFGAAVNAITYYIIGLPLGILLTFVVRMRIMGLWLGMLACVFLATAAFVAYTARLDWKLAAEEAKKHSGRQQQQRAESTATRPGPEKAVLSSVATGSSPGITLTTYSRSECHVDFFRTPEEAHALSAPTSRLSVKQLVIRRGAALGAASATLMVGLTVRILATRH

SMILES	ratio of uptake in transporter-transfected cells over empty vector control cells [1]	ratio of uptake in transporter-transfected cells over empty vector control cells [2]	ratio of uptake in transporter-transfected cells over empty vector control cells [3]	ratio of uptake in transporter-transfected cells over empty vector control cells [4]	transport activity ([5]; OCT1*6)	Km ([5]; OCT1*6 (M420del, C88R))	vmax ([5]; OCT1*6 (M420del, C88R))	vmax [6]	vmax [7]	ratio of uptake in transporter-transfected cells over empty vector control cells [8]	ratio of uptake in transporter-transfected cells over empty vector control cells [9]	vmax ([10]; OCT2 WT)	Km at 2 min ([10]; human, pH 7.4) [µM]	excreted unchanged in urine [11]	vmax ([12]; OCT2 A270S)	Km at 2 min ([12]; human, pH 7.4) [µM]	ratio of uptake in transporter-transfected cells over empty vector control cells [13]	Km higher for DAT compared with NET [14] [fold]	vmax higher for DAT compared with NET [14] [fold]	inhibition of mescaline uptake by OCT1 [15]
COc1cc(CCN)cc(OC)c1OC [Mescaline]	not transported much	not transported much	more than 8 fold	not transported much	very low transport activity	Not determinable	Not determinable	642 pmol × mg protein^−1 × min^−1 and 642 ± 57 pmol × mg protein^−1 × min^−1	391 ± 266 pmol × mg protein^−1 × min^−1	not transported much	not transported much	–	–	–	–	–	–	–	–	–
C[C@H](N)[C@@H](O)c1ccccc1 [Cathine, (+)-norpseudoephedrine]	4 fold	–	–	–	–	–	–	–	–	–	7 fold	570.1 (± 94.3) pmol × mg protein^-1 × min^-1	46 ± 17.3	46–65%	505.4 (± 168.1) pmol × mg protein^-1 × min^-1	58.4	4- to 6 fold	21	10	–
C[n+]1ccc(-c2ccccc2)cc1 [MPP^+, 1-methyl-4-phenylpyridinium]	–	–	–	–	–	–	–	–	–	–	–	–	–	–	–	–	–	–	–	completely inhibited
